Test results reported in publication PMC3919815, “Anti-Tumor Effects of Novel 5-O-Acyl Plumbagins Based on the Inhibition of Mammalian DNA Replicative Polymerase Activity” (PLoS ONE, 2014).

Key:
Assay in all cases: DNA polymerase activity inhibition
Type in all cases: biochemical
Human pol η = biological target: T1, Human pol η (Homo sapiens, UniProt Q9Y253); conditions: 0.05 units enzyme; mean ± SD (n = 3)
T1 construct: A truncated form of human pol η (residues 1–511) tagged with His6 at its C-terminal; His6 (C); made in house; host or cells: E. coli
T1 sequence (Q9Y253 1-511): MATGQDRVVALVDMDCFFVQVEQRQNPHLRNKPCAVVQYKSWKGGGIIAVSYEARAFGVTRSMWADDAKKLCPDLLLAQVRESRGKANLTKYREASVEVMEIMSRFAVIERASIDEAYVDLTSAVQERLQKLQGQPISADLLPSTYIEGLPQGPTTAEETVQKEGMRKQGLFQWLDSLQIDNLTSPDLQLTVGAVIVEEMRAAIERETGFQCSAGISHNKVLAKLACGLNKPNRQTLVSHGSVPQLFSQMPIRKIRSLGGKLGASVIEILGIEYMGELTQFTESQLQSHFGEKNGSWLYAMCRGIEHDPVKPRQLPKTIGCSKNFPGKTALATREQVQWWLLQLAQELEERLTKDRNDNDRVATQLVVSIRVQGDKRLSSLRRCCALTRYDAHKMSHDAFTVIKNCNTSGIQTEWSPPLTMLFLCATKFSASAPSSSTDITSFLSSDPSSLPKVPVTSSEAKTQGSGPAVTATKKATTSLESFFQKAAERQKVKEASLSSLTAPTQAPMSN
Text: (§1) Pol α was purified from calf thymus by immunoaffinity column chromatography as described by Tamai et al.. Recombinant rat pol β was purified from Escherichia coli JMpβ5 as described by Date et al.. The human pol γ catalytic gene was cloned into pFastBac. Histidine-tagged enzyme was expressed using the BACTO-BAC HT Baculovirus Expression System according to the manufacturer's instructions (Life Technologies, Frederick, MD, USA) and purified using ProBound resin (Invitrogen Japan, Tokyo Japan). Human pols δ and ε were purified by nuclear fractionation of human peripheral blood cancer cells (Molt-4) using the second subunit of pol δ and ε-conjugated affinity column chromatography, respectively. A truncated form of human pol η (residues 1–511) tagged with His6 at its C-terminal was expressed in E. coli cells and purified as described by Kusumoto et al.. A recombinant mouse pol ι tagged with His6 at its C-terminal was expressed and purified by Ni–NTA column chromatography. A truncated form of pol κ (residues 1–560) with 6× His-tags attached at the C-terminus was overexpressed in E. coli and purified as described by Ohashi et al.. Recombinant human His-pol λ was overexpressed and purified according to a method described by Shimazaki et al.. Recombinant human His-pol μ was overexpressed in E. coli BL21 and purified using Glutathione Sepharose 4B (GE Healthcare Bio-Science Corp., Piscataway, NJ, USA) column chromatography according to the method for pol λ preparation by Shimazaki et al.. Pol α from a higher plant, cauliflower, was purified from the inflorescence structure according to the methods outlined by Sakaguchi et al.. Recombinant rice (Oryza sativa L. cv. Nipponbare) pol λ tagged with His6 at the C-terminus was expressed in E. coli and purified as described by Uchiyama et al.. Calf TdT, Taq pol, T4 pol, T7 RNA polymerase, and T4 polynucleotide kinase were purchased from Takara Bio Inc. (Kyoto, Japan). The Klenow fragment of pol I from E. coli was purchased from Worthington Biochemical Corp. (Freehold, NJ, USA). Bovine pancreas deoxyribonuclease I was obtained from Stratagene Cloning Systems (La Jolla, CA, USA).
(§2) The reaction mixtures for calf pol α, rat pol β, plant pol α, and prokaryotic pols have been described previously, [35]; those for pol γ as well as pols δ and ε were previously described by Umeda et al. and Ogawa et al., respectively. Those for pols η, ι, and κ were the same as for pol α, and those for pols λ and μ were the same as for pol β. For the pol reactions, poly(dA)/oligo(dT)18 (A/T, 2/1) and dTTP were used as the DNA template-primer substrate and nucleotide (dNTP; 2′-deoxynucleoside-5′-triphosphate) substrate, respectively. For the TdT reactions, oligo(dT)18 (3′-OH) and dTTP were used as the DNA primer substrate and nucleotide substrate, respectively.
(§3) The chemically synthesized 5-O-acyl plumbagins (2a–j) were dissolved in distilled dimethyl sulfoxide (DMSO) to various concentrations and sonicated for 30 s. Subsequently, 4 µL aliquots were mixed with 16 µL of each enzyme (0.05 units) in 50 mM Tris-HCl at pH 7.5, containing 1 mM dithiothreitol, 50% glycerol (by vol), and 0.1 mM ethylenediaminetetraacetic acid and held at 0°C for 10 min. These inhibitor-enzyme mixtures in 8 µL volumes were next added to 16 µL of enzyme standard reaction mixture and incubated at 37°C for 60 min, except for Taq pol, which was incubated at 74°C for 60 min. Activity without inhibitor was considered 100%, and the relative activity was determined for each inhibitor concentration. One unit of pol activity was defined as the amount of each enzyme that catalyzed the incorporation of 1 nmol dTTP into synthetic DNA template primers in 60 min, at 37°C, and under standard reaction conditions, [35].

Human pol δ = biological target: T2, Human pol δ (Homo sapiens, UniProt P28340); conditions: 0.05 units enzyme; mean ± SD (n = 3)
T2 construct: purified by nuclear fractionation of human peripheral blood cancer cells (Molt-4); endogenous in cells; host or cells: Molt-4
T2 sequence (P28340 whole entry): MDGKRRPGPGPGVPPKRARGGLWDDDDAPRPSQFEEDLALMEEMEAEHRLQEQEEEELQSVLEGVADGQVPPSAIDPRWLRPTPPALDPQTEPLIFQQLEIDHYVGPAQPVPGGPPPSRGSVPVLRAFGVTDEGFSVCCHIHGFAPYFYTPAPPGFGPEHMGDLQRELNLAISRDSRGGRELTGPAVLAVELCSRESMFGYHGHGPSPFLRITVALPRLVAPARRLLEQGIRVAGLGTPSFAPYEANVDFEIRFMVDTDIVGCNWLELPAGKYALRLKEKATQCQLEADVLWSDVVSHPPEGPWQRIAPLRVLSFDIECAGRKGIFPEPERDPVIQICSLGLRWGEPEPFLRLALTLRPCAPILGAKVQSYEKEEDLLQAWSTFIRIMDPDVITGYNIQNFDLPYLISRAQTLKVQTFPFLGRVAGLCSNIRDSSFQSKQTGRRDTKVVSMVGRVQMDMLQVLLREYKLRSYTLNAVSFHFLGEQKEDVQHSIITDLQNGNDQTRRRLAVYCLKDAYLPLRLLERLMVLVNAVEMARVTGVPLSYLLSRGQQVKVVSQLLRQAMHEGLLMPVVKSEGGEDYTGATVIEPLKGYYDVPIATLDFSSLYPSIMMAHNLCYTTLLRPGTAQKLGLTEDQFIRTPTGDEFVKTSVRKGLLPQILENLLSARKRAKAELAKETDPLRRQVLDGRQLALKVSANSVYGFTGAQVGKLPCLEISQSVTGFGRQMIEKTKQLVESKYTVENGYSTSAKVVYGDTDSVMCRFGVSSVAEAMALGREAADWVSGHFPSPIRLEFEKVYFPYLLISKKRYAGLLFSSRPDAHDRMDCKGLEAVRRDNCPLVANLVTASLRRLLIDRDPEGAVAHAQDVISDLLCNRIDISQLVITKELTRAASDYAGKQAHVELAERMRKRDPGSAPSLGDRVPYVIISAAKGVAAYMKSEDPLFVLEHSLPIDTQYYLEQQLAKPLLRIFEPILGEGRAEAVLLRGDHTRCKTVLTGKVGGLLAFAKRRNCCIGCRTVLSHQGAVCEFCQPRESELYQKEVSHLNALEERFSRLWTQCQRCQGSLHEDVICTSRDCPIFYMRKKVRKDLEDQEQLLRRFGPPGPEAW
Text: as §1, §2, §3

Human pol ε = biological target: T3, Human pol ε (Homo sapiens, UniProt Q07864); conditions: 0.05 units enzyme; mean ± SD (n = 3)
T3 construct: purified by nuclear fractionation of human peripheral blood cancer cells (Molt-4); endogenous in cells; host or cells: Molt-4
T3 sequence (Q07864 whole entry): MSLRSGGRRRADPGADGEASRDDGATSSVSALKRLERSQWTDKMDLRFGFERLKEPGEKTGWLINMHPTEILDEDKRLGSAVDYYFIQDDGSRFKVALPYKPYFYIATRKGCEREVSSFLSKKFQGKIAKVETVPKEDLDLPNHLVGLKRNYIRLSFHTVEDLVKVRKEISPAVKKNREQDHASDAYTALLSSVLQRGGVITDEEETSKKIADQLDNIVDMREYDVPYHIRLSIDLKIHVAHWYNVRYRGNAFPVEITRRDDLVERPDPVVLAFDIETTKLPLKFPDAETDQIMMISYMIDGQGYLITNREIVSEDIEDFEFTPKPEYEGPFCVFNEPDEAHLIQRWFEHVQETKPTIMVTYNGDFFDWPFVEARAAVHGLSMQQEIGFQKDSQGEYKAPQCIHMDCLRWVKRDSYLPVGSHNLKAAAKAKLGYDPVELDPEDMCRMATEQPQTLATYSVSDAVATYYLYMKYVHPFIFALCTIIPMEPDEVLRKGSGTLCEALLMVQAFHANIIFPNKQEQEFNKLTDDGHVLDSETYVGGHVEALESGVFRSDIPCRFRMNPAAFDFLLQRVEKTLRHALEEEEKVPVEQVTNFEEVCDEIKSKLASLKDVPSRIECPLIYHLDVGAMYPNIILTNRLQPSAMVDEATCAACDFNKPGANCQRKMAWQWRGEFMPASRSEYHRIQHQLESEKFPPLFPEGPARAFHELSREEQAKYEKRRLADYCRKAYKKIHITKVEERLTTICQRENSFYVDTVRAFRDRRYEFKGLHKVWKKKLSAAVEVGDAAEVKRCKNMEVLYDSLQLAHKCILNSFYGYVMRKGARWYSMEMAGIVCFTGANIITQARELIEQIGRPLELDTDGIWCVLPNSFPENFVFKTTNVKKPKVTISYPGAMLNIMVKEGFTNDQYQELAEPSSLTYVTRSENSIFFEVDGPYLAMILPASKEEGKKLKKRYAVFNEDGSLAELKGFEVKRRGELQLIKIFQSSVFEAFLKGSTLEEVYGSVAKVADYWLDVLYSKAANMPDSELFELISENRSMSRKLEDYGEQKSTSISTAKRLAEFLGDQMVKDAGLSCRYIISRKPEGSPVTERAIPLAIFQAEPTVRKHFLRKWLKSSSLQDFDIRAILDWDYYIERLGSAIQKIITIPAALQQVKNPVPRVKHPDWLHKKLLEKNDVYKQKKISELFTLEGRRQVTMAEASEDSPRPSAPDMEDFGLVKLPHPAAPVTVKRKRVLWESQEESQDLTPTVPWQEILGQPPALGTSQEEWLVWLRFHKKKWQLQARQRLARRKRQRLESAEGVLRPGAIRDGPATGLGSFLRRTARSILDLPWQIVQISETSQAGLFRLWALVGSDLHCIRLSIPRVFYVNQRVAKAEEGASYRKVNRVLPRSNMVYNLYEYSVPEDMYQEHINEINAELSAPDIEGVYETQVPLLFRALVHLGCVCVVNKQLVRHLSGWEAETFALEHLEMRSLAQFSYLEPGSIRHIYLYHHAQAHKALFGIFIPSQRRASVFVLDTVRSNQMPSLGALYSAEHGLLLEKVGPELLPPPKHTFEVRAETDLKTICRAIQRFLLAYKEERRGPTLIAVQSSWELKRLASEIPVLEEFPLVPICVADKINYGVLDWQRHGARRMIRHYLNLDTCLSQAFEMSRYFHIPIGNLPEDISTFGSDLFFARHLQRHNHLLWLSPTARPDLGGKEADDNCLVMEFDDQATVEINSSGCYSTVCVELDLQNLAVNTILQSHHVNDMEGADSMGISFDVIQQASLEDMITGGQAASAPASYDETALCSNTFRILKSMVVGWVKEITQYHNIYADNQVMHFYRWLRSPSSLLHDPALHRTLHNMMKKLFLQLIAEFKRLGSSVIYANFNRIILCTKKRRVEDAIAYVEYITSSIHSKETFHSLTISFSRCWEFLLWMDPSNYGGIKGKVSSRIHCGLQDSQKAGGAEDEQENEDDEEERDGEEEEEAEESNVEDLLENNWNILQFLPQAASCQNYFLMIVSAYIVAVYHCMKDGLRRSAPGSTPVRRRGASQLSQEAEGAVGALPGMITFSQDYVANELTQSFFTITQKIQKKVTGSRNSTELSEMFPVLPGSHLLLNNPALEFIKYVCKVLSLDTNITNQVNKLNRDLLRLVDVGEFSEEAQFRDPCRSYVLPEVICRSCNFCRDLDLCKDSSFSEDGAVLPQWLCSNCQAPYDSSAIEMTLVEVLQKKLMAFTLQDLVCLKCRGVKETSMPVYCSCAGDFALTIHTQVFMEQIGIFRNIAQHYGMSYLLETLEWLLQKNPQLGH
Text: as §1, §2, §3

Human pol κ = biological target: T4, Human pol κ (Homo sapiens, UniProt Q9UBT6); conditions: 0.05 units enzyme; mean ± SD (n = 3)
T4 construct: A truncated form of pol κ (residues 1–560) with 6× His-tags attached at the C-terminus; 6× His (C); made in house; host or cells: E. coli
T4 sequence (Q9UBT6 1-560): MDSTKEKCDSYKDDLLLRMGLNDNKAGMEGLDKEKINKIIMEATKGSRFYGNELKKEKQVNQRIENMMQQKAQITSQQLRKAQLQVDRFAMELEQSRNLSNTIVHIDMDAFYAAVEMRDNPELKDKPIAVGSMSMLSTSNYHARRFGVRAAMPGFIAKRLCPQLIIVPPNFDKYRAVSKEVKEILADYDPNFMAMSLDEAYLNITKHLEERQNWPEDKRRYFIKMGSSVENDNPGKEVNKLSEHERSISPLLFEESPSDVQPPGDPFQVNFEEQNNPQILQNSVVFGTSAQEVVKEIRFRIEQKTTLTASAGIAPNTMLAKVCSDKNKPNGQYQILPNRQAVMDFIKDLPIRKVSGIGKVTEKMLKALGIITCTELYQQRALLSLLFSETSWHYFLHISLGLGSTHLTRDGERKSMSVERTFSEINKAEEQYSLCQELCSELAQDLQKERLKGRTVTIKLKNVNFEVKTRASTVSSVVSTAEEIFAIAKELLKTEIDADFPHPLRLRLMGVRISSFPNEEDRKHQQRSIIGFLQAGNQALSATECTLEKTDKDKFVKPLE
Text: as §1, §2, §3

Mouse pol ι = biological target: T5, Mouse pol ι (Mus musculus, UniProt Q6R3M4); conditions: 0.05 units enzyme; mean ± SD (n = 3)
T5 construct: His6 (C); made in house
Text: as §1, §2, §3

Cauliflower pol α = Cauliflower pol α (Brassica oleracea var. botrytis, UniProt A0A0D3D890)
Text: as §1, §2, §3

E. coli pol I = biological target: T6, E. coli pol I (Escherichia coli, UniProt P00582)
T6 construct: The Klenow fragment of pol I from E. coli was purchased from Worthington Biochemical Corp; purchased Worthington Biochemical Corp. (Freehold, NJ, USA)
T6 sequence (P00582 324-928): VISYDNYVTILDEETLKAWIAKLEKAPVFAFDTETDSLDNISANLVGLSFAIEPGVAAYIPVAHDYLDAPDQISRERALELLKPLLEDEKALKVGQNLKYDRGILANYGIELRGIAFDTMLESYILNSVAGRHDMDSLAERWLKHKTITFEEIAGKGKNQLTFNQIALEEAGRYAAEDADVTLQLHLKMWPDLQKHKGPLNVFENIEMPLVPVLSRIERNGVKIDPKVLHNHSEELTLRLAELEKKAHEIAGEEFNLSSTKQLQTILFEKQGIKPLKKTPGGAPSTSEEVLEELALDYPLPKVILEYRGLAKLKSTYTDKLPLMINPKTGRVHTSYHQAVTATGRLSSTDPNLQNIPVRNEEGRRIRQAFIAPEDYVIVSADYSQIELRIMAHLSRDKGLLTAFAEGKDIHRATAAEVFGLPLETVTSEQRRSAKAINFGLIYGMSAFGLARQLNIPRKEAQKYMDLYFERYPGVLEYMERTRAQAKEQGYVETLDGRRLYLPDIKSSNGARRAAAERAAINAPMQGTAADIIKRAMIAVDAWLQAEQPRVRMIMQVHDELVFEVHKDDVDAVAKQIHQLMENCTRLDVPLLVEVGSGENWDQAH
Text: as §1, §2, §3

Human pol μ = biological target: T7, Human pol μ (Homo sapiens, UniProt Q9NP87); conditions: 0.05 units enzyme; mean ± SD (n = 3)
T7 construct: His tag; made in house; host or cells: E. coli BL21
T7 sequence (Q9NP87 whole entry): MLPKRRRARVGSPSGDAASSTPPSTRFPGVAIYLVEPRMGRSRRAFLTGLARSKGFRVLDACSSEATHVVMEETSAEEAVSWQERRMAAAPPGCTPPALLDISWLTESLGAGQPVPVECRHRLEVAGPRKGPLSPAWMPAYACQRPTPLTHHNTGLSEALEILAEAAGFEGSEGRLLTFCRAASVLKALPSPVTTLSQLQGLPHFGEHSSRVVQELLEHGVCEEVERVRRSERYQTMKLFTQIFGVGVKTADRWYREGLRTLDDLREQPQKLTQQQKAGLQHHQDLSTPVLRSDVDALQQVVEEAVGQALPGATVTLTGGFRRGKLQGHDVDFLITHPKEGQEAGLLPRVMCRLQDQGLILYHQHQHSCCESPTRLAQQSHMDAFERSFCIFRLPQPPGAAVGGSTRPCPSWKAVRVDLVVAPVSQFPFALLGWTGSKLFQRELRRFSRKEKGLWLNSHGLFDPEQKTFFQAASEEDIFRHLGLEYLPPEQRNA
Text: as §1, §2, §3

Calf pol α = biological target: T8, Calf pol α (Bos taurus, UniProt A0AAA9TD94); conditions: 0.05 units enzyme; mean ± SD (n = 3)
T8 construct: from tissue; host or cells: calf thymus
Text: as §1, §2, §3

## CCCCCCCC/C=C\CCCCCCCC(=O)Oc1cccc2c1C(=O)C=C(C)C2=O [2f, 5-O-oleoyl-2-methyl-1,4-naphthoquinone]
Human pol η
  IC50: 7.9 ± 0.42 µM
Human pol δ
  IC50: 5.3 ± 0.41 µM
Human pol ε
  IC50: 4.9 ± 0.4 µM
Human pol κ
  IC50: 7.6 ± 0.41 µM
Mouse pol ι
  IC50: 8.2 ± 0.43 µM
Cauliflower pol α
  effect on enzyme activity (in words): had no effect
E. coli pol I
  effect on enzyme activity (in words): had no effect
E. coli pol I; 0.05 units enzyme
  IC50: > 100 µM
Human pol μ
  IC50: 9.5 ± 0.48 µM
Calf pol α
  IC50: 4.8 ± 0.38 µM
